Read-outs that look alike come from different tables or passages of the source.
How the values were obtained:
WbDHFR [1] = target: T1, WbDHFR (Wuchereria bancrofti, UniProt J9F199); format: biochemical
Description: Compounds (-)-epicatechin, (-)-epicatechin gallate, and vitexin were tested as inhibitors of WbDHFR and BmDHFR. The compounds (-)-epicatechin and (-)-epicatechin gallate were synthesized as described previously. […] Disappearance of DHF and NADPH was observed by measuring absorbance at 340 nm to measure the DHFR activity in a SpectraMax M3 microplate reader. […] All experiments were completed in triplicate.

WbDHFR [2] = target: T1, WbDHFR
Description: To determine the mechanism of inhibition, Dixon plots were created and analyzed for the inhibitors against WbDHFR. We determined WbDHFR activity as described above at DHF concentrations of 2 μM, 4 μM, and 8 μM in 200 μL reaction volumes. WbDHFR (6 nM) and 100 μM NADPH cofactor were included in 1 X MTEN buffer at pH 6.0. […] The reciprocal initial velocities were plotted against inhibitor concentration for each substrate in Excel to create the Dixon plots. Substrate trend-lines were extended to calculate the intersection point,–KI. Each Dixon plot was generated in triplicate.
A linear equation was fitted to the data at each substrate concentration. […] The KI values for BmDHFR in Table 1 were obtained using the Cheng-Prusoff Equation [18]. […] Inhibitor structures are shown in supporting information (S2 Fig).

[3] = read-out: IC50 WbDHFR, pH 6.0, 100 μM NADPH, 50 μM DHF, 12.1 nM WbDHFR, average of triplicates ± S.D.
[4] = read-out: IC50 against WbDHFR Average, average of three trials
[5] = read-out: IC50 against WbDHFR Trial 1, individual trial
[6] = read-out: IC50 against WbDHFR Trial 2, individual trial
[7] = read-out: IC50 against WbDHFR Trial 3, individual trial
[8] = read-out: KI Trial 1, WbDHFR, individual trial, Dixon plot
[9] = read-out: KI Trial 2, WbDHFR, individual trial, Dixon plot
[10] = read-out: KI Trial 3, WbDHFR, individual trial, Dixon plot
[11] = read-out: KI WbDHFR, from Dixon plots, 6 nM WbDHFR, 100 μM NADPH, DHF 2, 4, 8 μM, pH 6.0, ± S.D.
[12] = read-out: Average KI, WbDHFR, average of three trials, Dixon plots

Row | SMILES | IC50 (WbDHFR [1]; [3]) [µM] | IC50 (WbDHFR [1]; [4]) [µM] | IC50 (WbDHFR [1]; [5]) [µM] | IC50 (WbDHFR [1]; [6]) [µM] | IC50 (WbDHFR [1]; [7]) [µM] | Ki (WbDHFR [2]; [8]) [µM] | Ki (WbDHFR [2]; [9]) [µM] | Ki (WbDHFR [2]; [10]) [µM] | Ki (WbDHFR [2]; read-out: KI WbDHFR, as stated in text (abstract, discussion)) [µM] | Ki (WbDHFR [2]; [11]) [µM] | Ki (WbDHFR [2]; [12]) [µM]
1 | Oc1cc(O)c2c(c1)O[C@H](c1ccc(O)c(O)c1)[C@H](O)C2 [(-)-Epicatechin, (-)-epicatechin] | > 2500 | – | – | – | – | – | – | – | – | – | –
2 | Nc1nc(N)c2nc(CNc3ccc(C(=O)N[C@@H](CCC(=O)O)C(=O)O)cc3)cnc2n1 [Aminopterin, aminopterin] | 0.014 ± 0.005 | 0.0144 | 0.0203 | 0.00996 | 0.013 | 0.0026 | 0.00219 | 0.0016 | 0.0021 ± 0.0005 | 0.0021 ± 0.0005 | –
3 | O=c1cc(-c2ccc(O)cc2)oc2c([C@@H]3O[C@H](CO)[C@@H](O)[C@H](O)[C@H]3O)c(O)cc(O)c12 [Vitexin, vitexin] | > 240 | – | – | – | – | – | – | – | – | – | –
4 | CCc1nc(N)nc(N)c1-c1ccc(Cl)cc1 [Pyrimethamine, pyrimethamine] | 454 ± 37 | 454 | 449 | 494 | 420 | 20.3 | 15.9 | 8.89 | – | 15 ± 6 | 15
5 | Cc1nc2ccc(CN(C)c3ccc(C(=O)N[C@@H](CCC(=O)O)C(=O)O)s3)cc2c(=O)[nH]1 [Raltitrexed, raltitrexed] | 18 ± 10 | 17.8 | 28.6 | 11.7 | 13 | 0.536 | 1.09 | 3.32 | – | – | 1.6

— publication PMC5963757, “Expression, purification, and inhibition profile of dihydrofolate reductase from the filarial nematode Wuchereria bancrofti” (PLoS ONE, 2018)
